Where a name gives a salt, the structure may show the parent alone. Read-outs that look alike come from different tables or passages of the source.
Assays:
[1] = molecular target: T1, SARS-CoV-2 PLpro (nsp3 1564–1878) (Severe acute respiratory syndrome coronavirus 2, UniProt P0DTD1); experiment: biochemical; parameters: FRET-quenched peptide (Pro3) cleavage by PLpro, 10 min pre-incubation, slope over 20 min, normalised to no-compound control; settings: read-out: % of control remaining
[2] = molecular target: T1, SARS-CoV-2 PLpro (nsp3 1564–1878); experiment: biochemical; parameters: FRET-quenched peptide (Pro3) cleavage by PLpro, 10 min pre-incubation, slope over 20 min, normalised to no-compound control; settings: read-out: % of control remaining; remark: listed apart in the source
Method: The plates were organized with columns 3–22 containing the compounds; the remaining columns were used for reaction controls including substrate only and substrate with enzyme but no compound (Figure 3Aii). The PLpro enzyme was pre-incubated with the compounds for 10 min, and then the reaction was initiated by the addition of substrate. […] We incubated the inhibitors with PLpro before the enzymatic reaction so that the slow-binding inhibitors will not be missed out [21]. […] Fluorescence was read on a Spark multimode microplate reader (Tecan) with an excitation wavelength at 330 nm and emission wavelength at 420 nm. […] An amount of 5 µl of the enzyme was pre-incubated with compounds for 10 min before the addition of 15 µl substrate. Fluorescence was monitored at 2 min for 20 min with 3 min intervals giving a total of seven readings.

Compound `O=C(NCC(=O)N1CC[C@H](N[C@H]2CC[C@@](O)(c3ccc(-c4ncccn4)cn3)CC2)C1)c1cccc(C(F)(F)F)c1` [PF-4136309] has a remaining activity at 1.25 µM ([1]; Well no.=7097, low concentration screen) of 98.3%, a remaining activity at 1.25 µM ([1]; Well no.=8085, low concentration screen) of 98% and a remaining activity at 3.75 µM ([2]; Well no.=7097, high concentration screen) of 98.1%. It also gave a remaining activity at 3.75 µM ([2]; Well no.=8085, high concentration screen) of 89%.
`COc1ccc2cc(OCC3(C(=O)O)CN(C(=O)c4ccc(F)cc4)C3)ccc2c1` [PF-04418948] was tested, and the remaining activity at 1.25 µM ([1]; Well no.=7197, low concentration screen) was 89.6% and the remaining activity at 3.75 µM ([2]; Well no.=7197, high concentration screen) was 87.9%.
`CN1CC[C@@H](NC(=O)Nc2ccc(C#N)cc2)C[C@@H]1c1nc2ccccc2[nH]1` [PF-04449913 maleate salt] was tested, and the remaining activity at 1.25 µM ([1]; Well no.=5703, low concentration screen) was 104% and the remaining activity at 3.75 µM ([2]; Well no.=5703, high concentration screen) was 99.8%.
In the case of `CC(C)CNCc1ccc(-c2ccccc2S(=O)(=O)N2CCCC2)cc1` [PF-04455242 hydrochloride], the remaining activity at 1.25 µM ([1]; Well no.=5775, low concentration screen) is reported as 106% and the remaining activity at 3.75 µM ([2]; Well no.=5775, high concentration screen) is reported as 107%.
With `CCc1cncnc1N1CCN(Cc2nc3ccc(C(F)(F)F)cc3[nH]2)CC1` [PF-4708671] the remaining activity at 1.25 µM ([1]; Well no.=4804, low concentration screen) was 97% and the remaining activity at 3.75 µM ([2]; Well no.=4804, high concentration screen) was 94.4%.
With `CC1(C)CC(=O)c2c(C(F)(F)F)nn(-c3ccc(C(N)=O)c(N[C@H]4CC[C@H](OC(=O)CN)CC4)c3)c2C1` [PF-04929113 (SNX-5422)] the remaining activity at 1.25 µM ([1]; Well no.=4637, low concentration screen) was 101% and the remaining activity at 3.75 µM ([2]; Well no.=4637, high concentration screen) was 105%.
`Cc1ccc(-c2c(-c3nn(C)c4ncnc(N5CC[C@H](N6CCCCC6)C5)c34)cnn2C)cc1` [PF-4981517] showed a remaining activity at 1.25 µM ([1]; Well no.=4875, low concentration screen) of 99.5% and a remaining activity at 3.75 µM ([2]; Well no.=4875, high concentration screen) of 93.8%.
`Cc1cnc(-c2cc(N3CCN(C(=O)CCS(C)(=O)=O)CC3)ncc2Cl)c(C)c1` [PF-5274857 hydrochloride] was tested, and the remaining activity at 1.25 µM ([1]; Well no.=5701, low concentration screen) was 102% and the remaining activity at 3.75 µM ([2]; Well no.=5701, high concentration screen) was 103%.
`Cc1cnc(-c2cc(N3CCN(C(=O)CCS(C)(=O)=O)CC3)ncc2Cl)c(C)c1` [PF-5274857] gave a remaining activity at 1.25 µM ([1]; Well no.=4739, low concentration screen) of 99.5% and a remaining activity at 3.75 µM ([2]; Well no.=4739, high concentration screen) of 102%.
Work on `O=C1CC(c2c[nH]c3ccc(F)cc23)C(=O)N1` (stereo not drawn) [PF-06840003] yielded a remaining activity at 1.25 µM ([1]; Well no.=8215, low concentration screen) of 104% and a remaining activity at 3.75 µM ([2]; Well no.=8215, high concentration screen) of 101%.
For `COc1ccccc1S(=O)(=O)Nc1ccc2c(c1)CN(C)C(=O)N2` [PFI-1], the remaining activity at 1.25 µM ([1]; Well no.=4844, low concentration screen) was 97% and the remaining activity at 3.75 µM ([2]; Well no.=4844, high concentration screen) was 88.7%.
`CNC(=O)c1ccc(C)c(-n2c(C)cc(OCc3ccc(F)cc3F)c(Br)c2=O)c1` [PH-797804] gave a remaining activity at 1.25 µM ([1]; Well no.=4695, low concentration screen) of 104% and a remaining activity at 3.75 µM ([2]; Well no.=4695, high concentration screen) of 104%.
With `Cc1[nH]c(/C=C2\C(=O)Nc3ccc(S(=O)(=O)Cc4c(Cl)cccc4Cl)cc32)c(C)c1C(=O)N1CCC[C@@H]1CN1CCCC1` [PHA 665752 - (2R)-1-[[5-[(Z)-[5-[[(2,6-Dichlorophenyl)methyl]sulfonyl]-1,2-dihydro-2-oxo-3H-indol-3-ylidene]methyl]-2,4-dimethyl-1H-pyrrol-3-yl]carbonyl]-2-(1-pyrrolidinylmethyl)pyrrolidine] the remaining activity at 1.25 µM ([1]; Well no.=2590, low concentration screen) was 96.2% and the remaining activity at 3.75 µM ([2]; Well no.=2590, high concentration screen) was 98.3%.
With `CCc1cccc(CC)c1NC(=O)N1Cc2[nH]nc(NC(=O)c3ccc(N4CCN(C)CC4)cc3)c2C1` [PHA-680632] the remaining activity at 1.25 µM ([1]; Well no.=4865, low concentration screen) was 97.9% and the remaining activity at 3.75 µM ([2]; Well no.=4865, high concentration screen) was 101%.
`CC(C)CC(=O)Nc1n[nH]c2c1CN(C(=O)C1CCN(C)CC1)C2(C)C` [PHA-793887] showed a remaining activity at 1.25 µM ([1]; Well no.=4907, low concentration screen) of 94.3% and a remaining activity at 3.75 µM ([2]; Well no.=4907, high concentration screen) of 93.7%.
For `O=C(Nc1ccccc1)[C@@]12C[C@@H]1/C(=N\O)c1ccccc1O2` [PHCCC], the remaining activity at 1.25 µM ([1]; Well no.=8571, low concentration screen) was 107% and the remaining activity at 3.75 µM ([2]; Well no.=8571, high concentration screen) was 105%.
In the case of `CCCCCCCCCCCCc1ccc(S(=O)(=O)Nc2nncs2)cc1` [PHT-427], the remaining activity at 1.25 µM ([1]; Well no.=4959, low concentration screen) is reported as 96.5% and the remaining activity at 3.75 µM ([2]; Well no.=4959, high concentration screen) is reported as 98.1%.
Work on `Oc1ccc(-c2c(-c3ccccc3)nn3c(C(F)(F)F)cc(C(F)(F)F)nc23)cc1` [PHTPP] yielded a remaining activity at 1.25 µM [1] of 103% and a remaining activity at 3.75 µM [2] of 101%.
Work on `COc1cc(Nc2nc3ccccc3nc2NS(=O)(=O)c2ccc(NC(=O)c3ccc(C)c(OC)c3)cc2)cc(OC)c1` [PI3K-IN-1] yielded a remaining activity at 1.25 µM ([1]; Well no.=8600, low concentration screen) of 102% and a remaining activity at 3.75 µM ([2]; Well no.=8600, high concentration screen) of 97.8%.
`O=C1NC(=O)/C(=C/c2ccc3nccnc3c2)S1` [PI 3-Kg Inhibitor] was tested, and the remaining activity at 1.25 µM ([1]; Well no.=2515, low concentration screen) was 99.9% and the remaining activity at 3.75 µM ([2]; Well no.=2515, high concentration screen) was 106%.
`Nc1ccc(-c2cccc3c(=O)cc(N4CCOCC4)oc23)cc1` [PI 828 - 2-(4-Morpholinyl)-8-(4-aminopheny)l-4H-1-benzopyran-4-one] was tested, and the remaining activity at 1.25 µM ([1]; Well no.=2628, low concentration screen) was 98.1% and the remaining activity at 3.75 µM ([2]; Well no.=2628, high concentration screen) was 102%.
`Oc1cccc(-c2nc(N3CCOCC3)c3oc4ncccc4c3n2)c1` [PI-103] showed a remaining activity at 1.25 µM ([1]; Well no.=2367, low concentration screen) of 100% and a remaining activity at 3.75 µM ([2]; Well no.=2367, high concentration screen) of 100%.
`CCCc1ccc(OCC(=O)N(Cc2nc(-c3cccnc3)no2)C(C)C)cc1` [PI-1840] gave a remaining activity at 1.25 µM ([1]; Well no.=8718, low concentration screen) of 94.8% and a remaining activity at 3.75 µM ([2]; Well no.=8718, high concentration screen) of 98.4%.
`Cc1ccc([N+](=O)[O-])cc1S(=O)(=O)N(C)/N=C/c1cnc2ccc(Br)cn12` [PIK 75] gave a remaining activity at 1.25 µM ([1]; Well no.=2993, low concentration screen) of 96.4% and a remaining activity at 3.75 µM ([2]; Well no.=2993, high concentration screen) of 96.1%.
`COc1ccc2c3n(c(=NC(=O)c4cccnc4)nc2c1OC)CCN3` [PIK-90] showed a remaining activity at 1.25 µM ([1]; Well no.=2747, low concentration screen) of 91.2% and a remaining activity at 3.75 µM ([2]; Well no.=2747, high concentration screen) of 95%.
For `CC(=O)Nc1nc(C)c(-c2ccc(Cl)c(S(=O)(=O)NCCO)c2)s1` [PIK-93], the remaining activity at 1.25 µM ([1]; Well no.=4911, low concentration screen) was 95.7% and the remaining activity at 3.75 µM ([2]; Well no.=4911, high concentration screen) was 96.9%.
`CCCOc1ccc(/C=C2/SC(=O)NC2=O)cc1` [PIM1/2 Kinase Inhibitor VI] showed a remaining activity at 1.25 µM ([1]; Well no.=2571, low concentration screen) of 97.6% and a remaining activity at 3.75 µM ([2]; Well no.=2571, high concentration screen) of 97%.
`CN(C)CC(=O)Nc1ccc2[nH]c(=O)c3ccccc3c2c1` [PJ-34] was tested, and the remaining activity at 1.25 µM ([1]; Well no.=906, low concentration screen) was 99.3% and the remaining activity at 3.75 µM ([2]; Well no.=906, high concentration screen) was 95.6%.
Compound `Cc1nnc(NC(=O)c2nc(S(=O)(=O)Cc3ccc(F)cc3)ncc2Cl)s1` [PK11007] has a remaining activity at 1.25 µM ([1]; Well no.=6834, low concentration screen) of 86.8% and a remaining activity at 3.75 µM ([2]; Well no.=6834, high concentration screen) of 87.8%.
For `CCC(C)N(C)C(=O)c1cc2ccccc2c(-c2ccccc2Cl)n1` (stereo not drawn) [PK 11195], the remaining activity at 1.25 µM ([1]; Well no.=185, low concentration screen) was 99.9% and the remaining activity at 3.75 µM ([2]; Well no.=185, high concentration screen) was 98.2%.
Compound `C[C@@H](Nc1ncnc2[nH]c(-c3ccc(O)cc3)cc12)c1ccccc1` [PKI-166] has a remaining activity at 1.25 µM ([1]; Well no.=6037, low concentration screen) of 94.4% and a remaining activity at 3.75 µM ([2]; Well no.=6037, high concentration screen) of 78.3%.
In the case of `CCn1nnc2c(N3CCOCC3)nc(-c3ccc(NC(=O)Nc4ccc(C(=O)N5CCN(C)CC5)cc4)cc3)nc21` [PKI-402], the remaining activity at 1.25 µM ([1]; Well no.=4699, low concentration screen) is reported as 105% and the remaining activity at 3.75 µM ([2]; Well no.=4699, high concentration screen) is reported as 101%.
Compound `O=C1Nc2ccc(Cl)cc2/C1=C/c1cc(Cl)c(O)c(Cl)c1` [PKR Inhibitor, Negative Control] has a remaining activity at 1.25 µM ([1]; Well no.=2513, low concentration screen) of 96.5% and a remaining activity at 3.75 µM ([2]; Well no.=2513, high concentration screen) of 99%.
`O=C1Nc2ccc3ncsc3c2/C1=C/c1cnc[nH]1` [PKR Inhibitor] showed a remaining activity at 1.25 µM ([1]; Well no.=2511, low concentration screen) of 103% and a remaining activity at 3.75 µM ([2]; Well no.=2511, high concentration screen) of 103%.
Work on `CCCS(=O)(=O)Nc1ccc(F)c(C(=O)c2c[nH]c3ncc(Cl)cc23)c1F` [PLX4720] yielded a remaining activity at 1.25 µM ([1]; Well no.=2795, low concentration screen) of 97.5% and a remaining activity at 3.75 µM ([2]; Well no.=2795, high concentration screen) of 99.9%.

Source: article PMC8286840, “Identifying SARS-CoV-2 antiviral compounds by screening for small molecule inhibitors of Nsp3 papain-like protease” (Biochemical Journal, 2021)
